Tested on: pro-inflammatory cytokine IL-6
Experiment: Test 1: IL-6 secretion by stress-induced senescent fibroblasts (ELISA)
Format: cell-based, human
Experimental: Experimentally, the test was carried out on primary human fibroblasts (abbreviation “NHDF” for “Normal Human Dermal Fibroblasts”) isolated from breast plastic surgery from a patient. These NHDFs were cultured in a complete “DMEM” culture medium (with 4.5 g/l of glucose and 10% of fetal calf serum (FCS)), then maintained in an atmosphere at 37° C. and 10% of CO2. On D-2, the fibroblasts were seeded in 6-well plates at a rate of 1.10^4 cells/cm^2. On D0, the fibroblasts were subjected to stress inducing premature senescence ([…] hydrogen peroxide, H2O2, for 2 hours), then incubated at 37° C. and 10% CO2 for 72 hours in order to leave senescence settle. On D+3, these senescent fibroblasts induced by such stress (abbreviation “SIPS-fibro” for “Stress-Induced Premature Senescent-fibroblasts”) were incubated for 24 hours in the presence of different weight ratios of wogonin to baicalein (abbreviation “W/B”) of synthetic origin. On D+4, the culture supernatants were harvested in order to perform an ELISA assay for the pro-inflammatory cytokine IL-6 (“R&DSystem kit, ref. D6050”). The results obtained were then normalized with respect to the quantity of cells per condition and subjected to statistical analysis in triplicate. The results are collated in Table 1 below, in particular expressed as % inhibition of IL-6 secretion relative to the senescent control.

COc1c(O)cc(O)c2c(=O)cc(-c3ccccc3)oc12 [wogonine, 5,7-dihydroxy-8-methoxyflavone]
% inhibition of IL-6 secretion (relative to the senescent control, senescent NHDF, 24 hours): −10%
Amount of IL-6 secreted (senescent NHDF (H2O2 stress), incubated 24 hours with compound, ELISA): 9.1 ng/10^6 cells
